According to the supplement of paper PMC10307832:

Tests used:
Assay in all cases: relative viability (nuclei count vs DMSO), 5 days (fraction); higher = more cells survive
NCI-H358 = tested on: NCI-H358
Procedure, shortened: (§1)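 Lung cancer cell lines in 1536-well plates got either a single drug or a fixed anchor-drug dose together with five library-drug doses (not always all listed) in √10 steps, by pin tool, on the day after seeding. Nuclei were counted after 5 days, and relative viability is the treated-to-vehicle ratio of nuclei counts. Values are medians of duplicate plates.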

NCI-H1975 = tested on: NCI-H1975
Procedure, shortened: as §1

H3255 = tested on: H3255
Procedure, shortened: as §1

ABC-1 = tested on: ABC-1
Procedure, shortened: as §1

NCI-H727 = tested on: NCI-H727
Procedure, shortened: as §1

NCI-H1437 = tested on: NCI-H1437
Procedure, shortened: as §1

EKVX = tested on: EKVX
Procedure, shortened: as §1

COR-L 105 = tested on: COR-L 105
Procedure, shortened: as §1

NCI-H1792 = tested on: NCI-H1792
Procedure, shortened: as §1

LCLC-103H = tested on: LCLC-103H
Procedure, shortened: as §1

NCI-H1651 = tested on: NCI-H1651
Procedure, shortened: as §1

EPLC-272H = tested on: EPLC-272H
Procedure, shortened: as §1

NCI-H661 = tested on: NCI-H661
Procedure, shortened: as §1

HCC-15 = tested on: HCC-15
Procedure, shortened: as §1

COR-L23 = tested on: COR-L23
Procedure, shortened: as §1

HCC-827 = tested on: HCC-827
Procedure, shortened: as §1

NCI-H1650 = tested on: NCI-H1650
Procedure, shortened: as §1

NCI-H647 = tested on: NCI-H647
Procedure, shortened: as §1

UMC-11 = tested on: UMC-11
Procedure, shortened: as §1

NCI-H2087 = tested on: NCI-H2087
Procedure, shortened: as §1

201T = tested on: 201T
Procedure, shortened: as §1

NCI-H520 = tested on: NCI-H520
Procedure, shortened: as §1

O=c1[nH]c2ccccc2n1C1CCN(CCCC(c2ccc(F)cc2)c2ccc(F)cc2)CC1 [Pimozide] + Cc1nc(Nc2ncc(C(=O)Nc3c(C)cccc3Cl)s2)cc(N2CCN(CCO)CC2)n1 [Dasatinib] (partner 0.075 µM)
relative viability (NCI-H358; first compound 0.08 µM): 0.16
relative viability (NCI-H358; first compound 0.253 µM): 0.199
relative viability (NCI-H358; first compound 0.8 µM): 0.157
relative viability (NCI-H358; first compound 2.53 µM): 0.156
relative viability (NCI-H358; first compound 8 µM): 0.172
relative viability (NCI-H1975; first compound 0.08 µM): 0.415
relative viability (NCI-H1975; first compound 0.253 µM): 0.342
relative viability (NCI-H1975; first compound 0.8 µM): 0.345
relative viability (NCI-H1975; first compound 2.53 µM): 0.346
relative viability (NCI-H1975; first compound 8 µM): 0.294
relative viability (H3255; first compound 0.253 µM): 0.355
relative viability (H3255; first compound 0.8 µM): 0.51
relative viability (H3255; first compound 2.53 µM): 0.446
relative viability (H3255; first compound 8 µM): 0.323
relative viability (ABC-1; first compound 0.08 µM): 0.521
relative viability (ABC-1; first compound 0.253 µM): 0.48
relative viability (ABC-1; first compound 0.8 µM): 0.518
relative viability (ABC-1; first compound 2.53 µM): 0.388
relative viability (ABC-1; first compound 8 µM): 0.396
relative viability (NCI-H727; first compound 0.08 µM): 0.36
relative viability (NCI-H727; first compound 0.253 µM): 0.347
relative viability (NCI-H727; first compound 0.8 µM): 0.4
relative viability (NCI-H727; first compound 2.53 µM): 0.358
relative viability (NCI-H727; first compound 8 µM): 0.405
relative viability (NCI-H1437; first compound 0.08 µM): 0.483
relative viability (NCI-H1437; first compound 0.253 µM): 0.43
relative viability (NCI-H1437; first compound 0.8 µM): 0.402
relative viability (NCI-H1437; first compound 2.53 µM): 0.289
relative viability (NCI-H1437; first compound 8 µM): 0.249
relative viability (EKVX; first compound 0.253 µM): 0.489
relative viability (EKVX; first compound 0.8 µM): 0.544
relative viability (EKVX; first compound 2.53 µM): 0.536
relative viability (EKVX; first compound 8 µM): 0.688
relative viability (COR-L 105; first compound 0.253 µM): 0.427
relative viability (COR-L 105; first compound 0.8 µM): 0.411
relative viability (COR-L 105; first compound 2.53 µM): 0.293
relative viability (COR-L 105; first compound 8 µM): 0.301
relative viability (NCI-H1792; first compound 0.08 µM): 0.89
relative viability (NCI-H1792; first compound 0.253 µM): 0.823
relative viability (NCI-H1792; first compound 0.8 µM): 0.769
relative viability (NCI-H1792; first compound 2.53 µM): 0.973
relative viability (NCI-H1792; first compound 8 µM): 0.849
relative viability (LCLC-103H; first compound 0.08 µM): 0.531
relative viability (LCLC-103H; first compound 0.253 µM): 0.373
relative viability (LCLC-103H; first compound 0.8 µM): 0.371
relative viability (LCLC-103H; first compound 2.53 µM): 0.518
relative viability (LCLC-103H; first compound 8 µM): 0.549
relative viability (NCI-H1651; first compound 0.08 µM): 0.436
relative viability (NCI-H1651; first compound 0.253 µM): 0.455
relative viability (NCI-H1651; first compound 0.8 µM): 0.388
relative viability (NCI-H1651; first compound 2.53 µM): 0.399
relative viability (NCI-H1651; first compound 8 µM): 0.391
relative viability (EPLC-272H; first compound 0.08 µM): 0.298
relative viability (EPLC-272H; first compound 0.253 µM): 0.322
relative viability (EPLC-272H; first compound 0.8 µM): 0.385
relative viability (EPLC-272H; first compound 2.53 µM): 0.293
relative viability (EPLC-272H; first compound 8 µM): 0.215
relative viability (NCI-H661; first compound 0.08 µM): 0.782
relative viability (NCI-H661; first compound 0.253 µM): 0.828
relative viability (NCI-H661; first compound 0.8 µM): 0.826
relative viability (NCI-H661; first compound 2.53 µM): 0.725
relative viability (NCI-H661; first compound 8 µM): 0.611
relative viability (HCC-15; first compound 0.08 µM): 0.651
relative viability (HCC-15; first compound 0.253 µM): 0.577
relative viability (HCC-15; first compound 0.8 µM): 0.551
relative viability (HCC-15; first compound 2.53 µM): 0.565
relative viability (HCC-15; first compound 8 µM): 0.495
relative viability (COR-L23; first compound 0.08 µM): 0.58
relative viability (COR-L23; first compound 0.253 µM): 0.468
relative viability (COR-L23; first compound 0.8 µM): 0.53
relative viability (COR-L23; first compound 2.53 µM): 0.49
relative viability (COR-L23; first compound 8 µM): 0.455
relative viability (HCC-827; first compound 0.253 µM): 0.265
relative viability (HCC-827; first compound 0.8 µM): 0.327
relative viability (HCC-827; first compound 2.53 µM): 0.32
relative viability (HCC-827; first compound 8 µM): 0.34
relative viability (NCI-H1650; first compound 0.08 µM): 0.274
relative viability (NCI-H1650; first compound 0.253 µM): 0.282
relative viability (NCI-H1650; first compound 0.8 µM): 0.337
relative viability (NCI-H1650; first compound 2.53 µM): 0.298
relative viability (NCI-H1650; first compound 8 µM): 0.239
relative viability (NCI-H647; first compound 0.08 µM): 0.41
relative viability (NCI-H647; first compound 0.253 µM): 0.233
relative viability (NCI-H647; first compound 0.8 µM): 0.198
relative viability (NCI-H647; first compound 2.53 µM): 0.179
relative viability (NCI-H647; first compound 8 µM): 0.162
relative viability (UMC-11; first compound 0.08 µM): 0.46
relative viability (UMC-11; first compound 0.253 µM): 0.45
relative viability (UMC-11; first compound 0.8 µM): 0.468
relative viability (UMC-11; first compound 2.53 µM): 0.431
relative viability (UMC-11; first compound 8 µM): 0.424
relative viability (NCI-H2087; first compound 0.08 µM): 0.905
relative viability (NCI-H2087; first compound 0.253 µM): 0.724
relative viability (NCI-H2087; first compound 2.53 µM): 0.642
relative viability (NCI-H2087; first compound 8 µM): 0.672
relative viability (201T; first compound 0.08 µM): 0.573
relative viability (201T; first compound 0.253 µM): 0.527
relative viability (201T; first compound 0.8 µM): 0.564
relative viability (201T; first compound 2.53 µM): 0.516
relative viability (201T; first compound 8 µM): 0.52
relative viability (NCI-H520; first compound 0.08 µM): 0.216
relative viability (NCI-H520; first compound 0.253 µM): 0.184
relative viability (NCI-H520; first compound 0.8 µM): 0.185
relative viability (NCI-H520; first compound 2.53 µM): 0.176
relative viability (NCI-H520; first compound 8 µM): 0.225
